Laboratory results taken from the supplement of paper PMC10307832.

Columns and labels:
Assay in all cases: relative viability (nuclei count vs DMSO), 5 days (fraction); higher = more cells survive
[1] = compound: C1/C(=C\C2=CC=CS2)/C(=O)/C(=C/C3=CC=CS3)/C1 + CC(C)C[C@H](NC(=O)[C@H](Cc1ccccc1)NC(=O)c1cnccn1)B(O)O [Bortezomib] (partner 0.002 µM)
How it was run: (§1)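 Relative viability was taken as the ratio of nuclei in treated wells to nuclei in vehicle wells. Lung cancer cell lines in 1536-well plates received compounds by pin tool one day after seeding, either one drug alone or a fixed anchor-drug dose plus five library-drug doses (not always all listed) in √10 steps. Nuclei were counted on 4× images after 5 days of treatment, and values are medians of duplicate plates.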

[2] = compound: C1/C(=C\C2=CC=CS2)/C(=O)/C(=C/C3=CC=CS3)/C1 + Cc1cc(Nc2cc(N3CCN(C)CC3)nc(Sc3ccc(NC(=O)C4CC4)cc3)n2)n[nH]1 [Tozasertib] (partner 0.1 µM)
How it was run: as §1

[3] = compound: C1=CC(=CC=C1C2=CC(=C(S2)NC(=O)N)C(=O)N)F [TPCA-1] + N=C(N)NC(=N)NCCc1ccccc1 [Phenformin] (partner 250 µM)
How it was run: as §1

[4] = compound: C1=CC(=CC=C1C2=CC(=C(S2)NC(=O)N)C(=O)N)F [TPCA-1] + Nc1ncn([C@H]2C[C@H](O)[C@@H](CO)O2)c(=O)n1 [Decitabine] (partner 2 µM)
How it was run: as §1

| Cell Line | relative viability ([1]; first compound 0.2 µM) | relative viability ([1]; first compound 0.6325 µM) | relative viability ([1]; first compound 2 µM) | relative viability ([1]; first compound 6.325 µM) | relative viability ([1]; first compound 20 µM) | relative viability ([2]; first compound 0.2 µM) | relative viability ([2]; first compound 0.6325 µM) | relative viability ([2]; first compound 2 µM) | relative viability ([2]; first compound 6.325 µM) | relative viability ([2]; first compound 20 µM) | relative viability ([3]; first compound 0.04 µM) | relative viability ([3]; first compound 0.1265 µM) | relative viability ([3]; first compound 0.4 µM) | relative viability ([3]; first compound 1.265 µM) | relative viability ([3]; first compound 4 µM) | relative viability ([4]; first compound 0.04 µM) | relative viability ([4]; first compound 0.1265 µM) | relative viability ([4]; first compound 0.4 µM) | relative viability ([4]; first compound 1.265 µM) | relative viability ([4]; first compound 4 µM) |
| --- | --- | --- | --- | --- | --- | --- | --- | --- | --- | --- | --- | --- | --- | --- | --- | --- | --- | --- | --- | --- |
| LC-2-ad | 1.03 | 1.05 | 1.02 | 0.871 | 1.02 | 0.452 | 0.461 | 0.448 | 0.429 | 0.429 | 0.679 | 0.523 | 0.607 | 0.575 | 0.319 | 0.773 | 0.678 | 0.741 | 0.854 | 0.776 |
| LCLC-97TM1 | 0.777 | 0.501 | 0.737 | 0.43 | 0.565 | 0.239 | 0.233 | 0.227 | 0.213 | 0.195 | 0.44 | 0.394 | 0.414 | 0.294 | 0.386 | 0.274 | 0.23 | 0.214 | 0.247 | 0.243 |
| LCLC-103H | 1.1 | 0.998 | 1.08 | 1 | 1.07 | 0.485 | 0.47 | 0.517 | 0.465 | 0.451 | 0.335 | 0.321 | 0.345 | 0.332 | 0.357 | 0.716 | 0.719 | 0.772 | 0.788 | 0.811 |
| LOU-NH91 | 0.472 | 0.528 | 0.459 | 0.327 | 0.493 | 0.755 | 0.705 | 0.657 | 0.604 | 0.596 | 0.712 | 0.677 | 0.73 | 0.599 | 0.664 | 0.835 | 0.749 | 0.793 | 0.792 | 0.776 |
| LU99A | 1.21 | 1.13 | 1.26 | 0.668 | 0.941 | 0.287 | 0.284 | 0.266 | 0.267 | 0.301 | 0.989 | 0.82 | 0.835 | 0.646 | 0.603 | 0.923 | 0.76 | 0.901 | 0.834 | 0.377 |
| LXF-289 | 1.01 | 0.988 | 0.971 | 0.83 | 0.991 | 0.196 | 0.207 | 0.193 | 0.151 | 0.178 | 0.551 | 0.489 | 0.532 | 0.447 | 0.308 | 0.384 | 0.345 | 0.395 | 0.403 | 0.34 |
| NCI-H23 | 1.17 | 1.05 | 0.953 | 0.983 | 1.01 | 0.374 | 0.394 | 0.373 | 0.421 | 0.323 | 0.813 | 0.764 | 0.759 | 0.681 | 0.353 | 0.319 | 0.277 | 0.289 | 0.317 | 0.262 |
| NCI-H322M | 1.17 | 1.31 | 1.3 | 1.19 | 1.12 | 0.533 | 0.439 | 0.474 | 0.454 | 0.483 | 0.922 | 0.7 | 0.797 | 0.795 | 0.375 | 0.729 | 0.638 | 0.74 | 0.682 | 0.486 |
| NCI-H441 | 0.617 | 0.516 | 0.351 | 0.447 | 0.482 | 0.657 | 0.614 | 0.613 | 0.631 | 0.528 | 1.15 | 0.688 | 0.934 | 0.703 | 0.283 | 0.252 | 0.247 | 0.229 | 0.48 | 0.239 |
| NCI-H460 | 1.12 | 1.26 | 1.17 |  | 1.09 | 0.377 | 0.438 | 0.401 | 0.323 | 0.321 | 0.607 | 0.523 | 0.53 | 0.502 | 0.336 | 0.521 | 0.461 |  | 0.453 | 0.476 |
| NCI-H520 | 0.575 | 0.763 | 0.601 | 0.401 | 0.533 | 0.531 | 0.506 | 0.458 | 0.398 | 0.406 | 0.872 | 0.473 | 0.844 | 0.579 | 0.177 | 0.522 | 0.35 | 0.573 | 0.516 | 0.331 |
| NCI-H596 | 0.868 | 1.07 | 1.19 | 1.08 |  | 0.726 | 0.865 | 1.11 | 0.855 | 0.995 | 0.857 | 0.678 | 0.764 | 0.746 | 0.658 | 1.02 | 0.997 | 1.07 | 1.1 | 1.07 |
| NCI-H647 | 0.877 | 1.09 | 1.11 | 0.627 | 0.912 | 0.382 | 0.379 | 0.296 | 0.271 | 0.238 | 0.557 | 0.484 | 0.614 | 0.38 | 0.151 | 0.475 | 0.433 | 0.385 | 0.4 | 0.346 |
| NCI-H650 | 0.974 | 0.849 | 0.961 | 1.02 | 0.768 | 0.857 | 0.716 | 0.675 | 0.689 | 0.786 | 0.493 | 0.436 | 0.466 | 0.311 | 0.293 | 0.347 | 0.359 | 0.338 | 0.331 | 0.3 |
| NCI-H661 | 0.857 | 0.716 | 0.858 | 0.738 | 0.732 | 0.324 | 0.361 | 0.374 | 0.308 | 0.36 | 0.281 | 0.272 | 0.269 | 0.306 | 0.253 | 0.533 | 0.58 | 0.597 | 0.602 | 0.436 |
| NCI-H727 | 0.783 | 0.947 | 1.04 | 0.698 | 0.815 | 0.725 | 0.619 | 0.627 | 0.478 | 0.536 | 0.673 | 0.417 | 0.488 | 0.389 | 0.479 | 0.946 | 0.787 | 0.943 | 0.788 | 0.576 |
